Assay results reported in US20250000979A1, “TRIPLET-TRIPLET ENERGY TRANSFER WITH LIGHT EXCITATION AT LONG WAVELENGTHS AND METHODS THEREOF” (priority 2023, published 2025).
Values joined by “and” are separate entries in the source; they are usually repeats but may differ in a detail not shown here. Equal values may be shown once. Read-outs that look alike come from different tables or passages of the source. Marks after values point to notes of the source that are not given here. Values belong to the compound of their own block, whether it stands above or below them.

How the values were obtained:
[1] = in toluene, calculated by TD-DFT, referred to previous studies; cited from earlier work
[2] = Photophysical properties (UV-Vis absorption, emission, energy levels); assay type: physicochemical; conditions: for λabs, max (S0-S1): S0-S1 (1MLCT) absorption; for λabs, max (S0-S1) / λabs, max (S0-T1): dichloromethane with 2% acetone; for λabs, max (S0-T1): S0-T1 (3MLCT, S-T) absorption; for E (absorption coefficient, S0-T1 band): at 688 nm (S0-T1); for Energy level T1 state: calculated from maximum T1 (phosphorescence) emission wavelength
Text: The absorption peak at about 492 nm is identified as the singlet metal-to-ligand charge transfer (^1MLCT) absorption, also termed as singlet-singlet (S-S) absorption. […] The two twistable bromophenyl groups of the bromophenyl terpyridine ligands extend the S-T absorption from 650 nm to 750 nm with increased absorption coefficient.
CombiFlash Rf chromatography instrument was purchased from Teledyne ISCO (Lincoln, USA) for chemical purification. Light sources used in this study were purchased from Yuanming Laser (Ningbo, China) and Mightex (CA, USA). The purity verification and photolysis study were conducted with a high-performance liquid chromatography (HPLC) system (Agilent technologies, 1260), attached with C-18 columns which were obtained from Agilent (Santa Clara, California, United States). Nuclear magnetic resonance (NMR) spectroscopy was collected by Bruker AVANCE III HD 500 spectrometer (MA, US). Fluorescence, phosphorescence and UV-vis spectra were collected by a SpectraMax M4 microplate reader (Molecular Devices, CA, US). The particle size and surface charge were recorded by a dynamic light scattering (DLS) device, Zetasizer Nano-ZS90 (Malvern instruments, UK). Transmission electron microscope (TEM) imaging was conducted on a Hitachi HT7700 TEM (Tokyo, Japan). ACEA NovoCyte Quanteon flow cytometer (ACEA Biosciences, CA, USA) was used for flow cytometry. In vivo and ex vivo imaging of the mice were conducted with an In Vivo Imaging System (PerkinElmer, USA). Devices for animal study like including balance and vernier caliper were kindly provided by The Centre for Comparative Medicine Research (CCMR), The University of Hong Kong.

[3] = N2-saturated solution without quencher; cited from earlier work
[4] = Encapsulation efficiency and loading capacity of Os/BC NP (HPLC); assay type: physicochemical; conditions: component of Os/BC NP
Protocol: Flash nanoprecipitation method was used to fabricate the photosensitizer/prodrug-loading nanoparticles. […] Different formulations (Os NPs, BC NPs and Os/BC NPs) were then prepared with optimized ratios of components. Briefly, 224 μL of the mixed stock solution was added into 1.8 mL N2-saturated water under vortexing. The resulted solutions were added to dialysis bags (MW: 3400 Da) and dialyzed against 4 L of water for 24 h. The water out of dialysis bag was renewed every 8 h. The resulted solution of NPs was collected and filtrated with 220 nm filter. Finally, the NPs solutions were concentrated by ultrafiltration (Mw=100 kDa, 2000×g, 10 min) and stored at 4° C. until use. The concentrations of each component were measured by using HPLC. Loading capacity and encapsulation efficiency were calculated as follow: […]

[5] = Stern-Volmer phosphorescence quenching assay (TTET from Os(bptpy)2^2+ to BODIPY-Cb); assay type: physicochemical
Protocol: The energy transfer quenching rate constants (kTTET) was measured by Stern-Volmer experiment. […] Oxygen was removed by nitrogen bubbling (50 mL/min) for 10 min.
Energy transfer quenching rate constants of this TTET process, quantified as kTTET, can be calculated based on the below equation (2)
(τ0: phosphorescence lifetime of Os(bptpy)2^2+ in N2-saturated solution without quencher.)
For Os(bptpy)2^2+, τ0=0.20 μs.

HeLa tumor = test: In vivo light-triggered prodrug activation and tumor inhibition; set-up: species or system BALB/c nude mice; conditions: 8 mg/kg intravenous Day 1 and 6, no light
Protocol: Encouraged by the anti-proliferation effect and tumor retention capability, Os/BC NPs were considered as an applicable agent for light-triggered drug release and photoactivated cancer chemotherapy. The HeLa tumor-bearing mice were randomly divided into […] (n=5) when the tumors reached at around […]. PBS, free Cb (8 mg/kg), Os NPs (at the equivalent concentration of Os in Os/BC NPs), BC NPs (at the equivalent concentration of Cb) and Os/BC NPs (at the equivalent concentration of Cb) were intravenously injected on Day 1 (FIG. 6C). At 24 h post injection, NIR-light irradiation (690 nm, 300 mW/cm^2, 10 min) was applied topically onto the tumor area (FIG. 6D). The formulation injection and light irradiation were repeated on Day 6 and 7, respectively. For evaluating therapeutic efficacy, tumor volume was recorded within the treatment period. […] However, no statistical difference was found between Group 3 and Groups 1, 2, 4 and 5. […] Hematoxylin and eosin (H&E) staining assay was conducted to investigate the pathology of the tumors and organs. […]
The anti-tumor efficacy of the formulations in presence or absence of light was investigated with HeLa tumor-bearing mice. […] Tumor sizes and body weights were measured during the period, and the tumor volume was calculated as V=½×width^2×length. […]

[6] = red-light irradiation (625 nm), platinum photosensitizer PtTPBP; ref 17 / US2021/0228719; cited from earlier work
[7] = Photolysis of BODIPY prodrugs in solution, analysed by HPLC; assay type: physicochemical
Protocol: BODIPY photocage was conjugated with the free drug molecules to form photoactivable prodrugs with photolabile linkages, including ester and carbamate. The light illumination was performed with a NIR lamp, of which the parameters were 100 mW/cm^2, 690 nm for 5 min, in a N2-saturated solution containing 0.1 equiv. of Os(bptpy)2^2+ and 1 equiv. of prodrugs. […] In addition, the photocage was conjugated with drug molecules with amine groups to produce prodrugs with photolabile carbamate bonds.
The photolysis efficiency of BODIPY prodrugs were compared in different conditions, including different excitation wavelengths (690 nm or 530 nm), different ratios of Os(bptpy)2^2+, and different oxygen contents. […] The solvent was 88% methanol mixed by 10% dichloromethane and 2% acetone. For the N2-saturated groups, after dissolving the molecules, the solution was degassed with a vacuum pump for 10 min followed by gentle N2 blowing. After light irradiation, the resulted mixtures were refilled to 100 μL with methanol to avoid the error caused by solvent evaporation. The resulted solution was loaded onto the sampler and analyzed by high-performance liquid chromatography. An elution method was used to separate free drug, BODIPY photocage and prodrug on the C18 column.

[8] = Photoreaction quantum yields and cross sections (HPLC, Reinecke's salt actinometry); assay type: physicochemical
Protocol: Quantum yields of the photoreactions (Φ) are defined as:
The number of reacted molecules (e.g., consumption of prodrugs or generation of free drugs) were determined by HPLC. The absorbed photon number was determined by Reinecke's salt actinometry at excitation wavelengths of 530 nm and 690 nm^35, 36. The power densities were 50 mW/cm^2 (530 nm) and 100 mW/cm^2 (690 nm).

[9] = In vivo biodistribution by IVIS fluorescence imaging; set-up: species or system BALB/c nude mice; conditions: intravenous, DiR 100 μg/kg, HeLa tumor-bearing mice
Text: The tumors and major organs were excised for ex vivo fluorescence imaging 24-h post injection. […] It should be noted that the prodrug can be selectively activated in tumors by NIR light while those nanoparticles in the normal tissues and organs will not be activated, which can alleviate the side effects of chemotherapy.
BALB/c nude mice (female, 4 weeks, 15-20 g) were obtained from the Experimental Animal Center of University with access to food and water ad libitum. The animal experiment and procedures were approved by the Committee on the Use of Live Animals in Teaching & Research (CULATR), The University of Hong Kong. (Protocol No. 4381-17).
HeLa tumor-bearing mice was obtained by subcutaneously injecting HeLa cells for tumor implantation. HeLa cancer cells were collected by cell culture and trypsin digestion. The cells were washed by PBS and resuspended in DMEM medium without serum, in which collagen and Matrigel were added. 2×10^6 cells were dispersed in 100 μL mixture, which was subcutaneously injected into the mice at underarm area. […]
The biodistribution of free drug or nanoparticles in the HeLa tumor-bearing mice was measured by an in vivo fluorescence imaging system. […] The in vivo fluorescence imaging was performed at 1, 2, 8 and 24 h post injection and anesthesia at each time point. […]

[10] = 10 μM, listed as Os(bptpy)2•2PF6

λabs, max (S0-S1) ([2]; 10 μM): about 492 nm
λabs, max (S0-S1) [2, 10]: 491 (S0-S1) nm
λabs, max (S0-T1) ([2]; 10 μM): 688 nm
λabs, max (S0-T1) [2, 10]: 688 (S0-T1) nm
E (absorption coefficient, S0-S1 band) ([2]; at 491 nm (S0-S1)): 73500 M⁻¹ cm⁻¹
E (absorption coefficient, S0-T1 band) [2]: 26600 M⁻¹ cm⁻¹
E (absorption coefficient, S0-T1 band) ([2]; listed as Os(bptpy)2•2PF6): 26600 M⁻¹ cm⁻¹
Energy level S1 state ([2]; calculated by maximum S1 emission wavelength, E = 1240/λem, S1): 2.56^h eV
Energy level T1 state ([2]; E = 1240/λem): 1.69 eV
Energy level T1 state ([2]; E = 1240/λem, listed as Os(bptpy)2•2PF6): 1.69^i eV
λem, max ([2]; λex = 491 nm): 498^c nm
λem, max ([2]; λex = 688 nm): 734^d nm
Encapsulation Efficiency [4]: 29.43%
Loading Capacity [4]: 0.22%
Quenching constant kq ([5]; 10 μM Os(bptpy)2^2+, quencher BODIPY-Cb 0-7.5 μM, N2): (5.491±0.282)×10^4 M^−1
Compound: Os (II) bromophenyl terpyridine complex [Os(bptpy)2^2+]
T1 lifetime [1]: 0.20^f μs
τ0 phosphorescence lifetime [3]: 0.20 μs
TTET rate constant (kTTET) ([5]; energy transfer from T1 of Os(bptpy)2^2+ to T1 of BODIPY-Cb): (2.72±0.14)×10^11 M^−1 s^−1

Compound: O=C(O)CCCc1ccc(N(CCCl)CCCl)cc1 [chlorambucil]
tumor volume (anti-tumor effect) (HeLa tumor): did not exhibit detectable anti-tumor effect

Compound: BODIPY-chlorambucil [BODIPY-Cb]
Energy level S1 state [1]: 2.18 eV and 2.18^f eV
Energy level T1 state [1]: 1.52 eV and 1.52^g eV
T1 lifetime [1]: 21.82^e μs
E (absorption coefficient at λabs, max) ([2]; at 543 nm): 89400 M⁻¹ cm⁻¹
λabs, max ([2]; dichloromethane solution with 2% acetone, 10 μM): 543 nm
λem, max ([2]; λex = 543 nm): 570^b nm
max. yield of free Cb, one-photon upconversion-like photolysis [6]: 41.74%
photocleavage in air-saturated solution ([7]; 530 nm green light, air-saturated): retarded
photolytic yield (yield of free drug) ([7]; 690 nm, 100 mW/cm^2, 5 min, 0.1 equiv. Os(bptpy)2^2+, N2-saturated solution): 84.17±4.21%
decomposition of prodrug and generation of free Cb in air-saturated solution ([7]; 690 nm, with Os(bptpy)2^2+, air-saturated): mostly retarded
Loading Capacity [4]: 0.27%
Cross section Φpε(λex) ([8]; λex 530 nm, Air): 2292.95 ± 730.79 M⁻¹ cm⁻¹
Cross section Φrε(λex) ([8]; λex 530 nm, Air): 171.63 ± 24.81 M⁻¹ cm⁻¹
Quantum yield of prodrug photolysis Φp ([8]; λex 530 nm, Air): 3.42 ± 1.09%
Cross section Φpε(λex) ([8]; λex 530 nm, N2): 16017.11 ± 2044.88 M⁻¹ cm⁻¹
Cross section Φrε(λex) ([8]; λex 530 nm, N2): 6016.62 ± 1895.28 M⁻¹ cm⁻¹
Quantum yield of drug release Φr ([8]; λex 530 nm, N2): 6.73 ± 2.12%
Quantum yield of prodrug photolysis Φp ([8]; λex 530 nm, N2): 23.89 ± 3.05%
Cross section Φpε(λex) ([8]; λex 690 nm, 0.1 eq Os, Air): 1.87 ± 1.11 M⁻¹ cm⁻¹
Cross section Φrε(λex) ([8]; λex 690 nm, 0.1 eq Os, Air): 0.49 ± 0.11 M⁻¹ cm⁻¹
Quantum yield of drug release Φr ([8]; λex 690 nm, 0.1 eq Os, N2): 0.73 ± 0.04%
Quantum yield of prodrug photolysis Φp ([8]; λex 690 nm, 0.1 eq Os, N2): 0.84 ± 0.01%
Cross section Φpε(λex) ([8]; λex 690 nm, 0.1 eq Os, N2, ε of Os(bptpy)2·2PF6 at 688 nm): 222.80 ± 2.90 M⁻¹ cm⁻¹

time within which the free dye was completely metabolized [9]: ≤ 8 h
Compound: CCCCCCCCCCCCCCCCCCN1C(=CC=CC=CC=CC2=[N+](CCCCCCCCCCCCCCCCCC)c3ccccc3C2(C)C)C(C)(C)c2ccccc21.[I-] [DiR, 1,1′-dioctadecyl-3,3,3′,3′-tetramethylindotricarbocyanine iodide]
